This experiment concerns the target T1, human 5-HT6 receptor (Homo sapiens, UniProt P50406).
T1 construct: host or cells: CHO-K1 cells, stably transfected; membranes prepared in house
The experiment in a line: Human 5-HT6 Receptor Binding Assay ([3H]LSD displacement, scintillation beads). Conditions: membranes of CHO-K1 cells with recombinant human 5-HT6, 4 nM [3H]LSD; Table 1, class symbols; read-out: h5-HT6 (Ki).

Structures are written as SMILES. Where a name gives a salt, the structure may show the parent alone. Some results are limits rather than exact numbers.

By Ki is commonly meant a dissociation constant, usually derived from enzyme kinetics or from competition with a known ligand.

T1 sequence (P50406 whole entry): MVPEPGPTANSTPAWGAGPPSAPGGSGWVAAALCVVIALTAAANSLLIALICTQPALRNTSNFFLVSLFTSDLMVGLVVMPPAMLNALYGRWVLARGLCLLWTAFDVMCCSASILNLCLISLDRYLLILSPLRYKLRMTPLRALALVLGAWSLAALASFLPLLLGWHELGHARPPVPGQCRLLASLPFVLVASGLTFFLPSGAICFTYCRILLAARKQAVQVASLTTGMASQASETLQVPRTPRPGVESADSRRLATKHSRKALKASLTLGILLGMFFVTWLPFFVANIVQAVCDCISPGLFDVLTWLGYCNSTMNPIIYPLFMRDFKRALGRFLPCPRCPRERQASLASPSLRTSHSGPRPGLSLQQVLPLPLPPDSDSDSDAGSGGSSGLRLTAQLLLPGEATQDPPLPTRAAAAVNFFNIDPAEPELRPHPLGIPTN

Take `CCCCCOc1cccc(S(=O)(=O)c2ccc3c(c2)OC2CNCCC32)c1` (stereo not shown) [Example 557]: the Ki is under 0.5 µM. To `O=S(=O)(c1cccc(OCC2CCOCC2)c1)c1ccc2c(c1)OC1CNCCC21` (stereo not shown) [Example 570, 7-{[3-(tetrahydro-2H-pyran-4-ylmethoxy)phenyl]sulfonyl}-1,2,3,4,4a,9a-hexahydro[1]benzofuro[2,3-c]pyridine] belongs under 0.5 µM; to `CC1(C)NCCc2c1oc1cc(S(=O)(=O)c3ccc(N4CCCC4)nc3)ccc21` [Example 380], over 1 µM; to `O=S(=O)(Oc1ccc2c(c1)C1CCNCC1O2)c1csc2ccccc12` (stereo not shown) [Example 726], under 0.5 µM. The same measure for `CC1OCCC12NCCc1c2oc2cc(S(=O)(=O)c3cccc(F)c3)ccc12` (single isomer, unassigned) [Example 60, 7-[(3-Fluorophenyl)sulfonyl]-2′-methyl-3,4,4′,5′-tetrahydro-2H-spiro[1-benzofuro[2,3-c]pyridine-1,3′-furan]]: under 0.5 µM. The same measure for `Cc1cc(C)cc(S(=O)(=O)Oc2ccc3c(c2)OC2CNCCC32)c1` (stereo not shown) [Example 648]: under 0.5 µM; for `O=S(=O)(c1cc(F)cc(Cl)c1)c1ccc2c(c1)OC1CNCCC21` (stereo not shown) [Example 157]: under 0.5 µM; for `N#CCCCCOc1cccc(S(=O)(=O)c2ccc3c(c2)OC2CNCCC32)c1` (stereo not shown) [Example 574]: under 0.5 µM.

As to `COc1cc(F)cc(S(=O)(=O)c2ccc3c(c2)OC2CNCCC32)c1` (stereo not shown) [Example 420], the Ki is under 0.5 µM. For `O=S(=O)(c1ccccc1)c1ccc2c3c(oc2c1)C1(CCOCC1)NCC3` [Example 296], the Ki is under 0.5 µM. The same measure for `Cc1c(S(=O)(=O)Oc2ccc3c(c2)C2CCNCC2O3)sc2ccc(Cl)cc12` (stereo not shown) [Example 748]: under 0.5 µM; for `COc1ccc(S(=O)(=O)c2ccc3c(c2)OC2CNCCC32)cc1` (stereo not shown) [Example 325]: 0.5 to 1 µM. Turning to `O=S(=O)(Oc1ccc2c(c1)C1CCNCC1O2)c1ccc(Cl)c(Cl)c1` (stereo not shown) [Example 738], the Ki is under 0.5 µM. `O=[N+]([O-])c1ccc(S(=O)(=O)Oc2ccc3c(c2)OC2CNCCC32)cc1` (stereo not shown) [Example 688]: the Ki fell in the range of 0.5 to 1 µM. Regarding `CC1(C)NCCc2c1oc1cc(S(=O)(=O)c3cncc(Br)c3)ccc21` [Example 367], the Ki was under 0.5 µM.

With `CC(C)C1NCCc2c1oc1ccc(S(=O)(=O)c3cccc(F)c3)cc21` (stereo not shown) [Example 512], the Ki was under 0.5 µM. The same measure for `COc1cccc(S(=O)(=O)Oc2ccc3c(c2)C2(C)CCNCC2O3)c1` (stereo not shown) [Example 761]: over 1 µM; for `N#Cc1ccc(S(=O)(=O)c2ccc3oc4c(c3c2)CCNC4)cc1` [Example 271]: over 1 µM. Consider `COCC1(C)NCCc2c1oc1cc(S(=O)(=O)c3cccc(F)c3)ccc21` (stereo not shown) [Example 634], for which the Ki is under 0.5 µM.

For `O=S(=O)(c1ccccc1)c1ccc2c3c(oc2c1)CN(CCc1ccccc1)CC3` [Example 596], the Ki is under 0.5 µM.

As to `O=S(=O)(c1ccc(Cl)cc1)c1ccc2c(c1)OC1CNCCC21` (stereo not shown) [Example 322], the Ki is under 0.5 µM. For `CC1(C)CNC2(CCOCC2)c2oc3cc(S(=O)(=O)c4cccc(F)c4)ccc3c21` [Example 2, 7-[(3-fluorophenyl)sulfonyl]-4,4-dimethyl-2′,3,3′,4,5′,6′-hexahydro-2H-spiro[1-benzofuro[2,3-c]pyridine-1,4′-pyran]], the Ki is under 0.5 µM. For `O=S(=O)(c1ccccc1)c1ccc2c(c1)OC1CN(Cc3ccccc3)CCC21` (stereo not shown) [Example 611], the Ki was under 0.5 µM. For the compound `O=S(=O)(c1cccc(F)c1)c1ccc2oc3c(c2c1)CCNC3CC(F)(F)F` (stereo not shown) [Example 518], the Ki was over 1 µM. To `O=S(=O)(c1ccc2oc3c(c2c1)CCNC3)c1cccc2cccnc12` [Example 354] belongs under 0.5 µM; to `CC(=O)N(C)CC1NCCc2c1oc1cc(S(=O)(=O)c3cccc(Cl)c3)ccc21` (racemic) [Example 541, N-({7-[(3-chlorophenyl)sulfonyl]-1,2,3,4-tetrahydro[1]benzofuro[2,3-c]pyridin-1-yl}methyl)-N-methylacetamide], under 0.5 µM; to `COc1cncc(S(=O)(=O)c2ccc3c4c(oc3c2)CNCC4(C)C)c1` [Example 451], under 0.5 µM. The same measure for `O=S(=O)(Nc1ccc2c(c1)C1CCNCC1O2)c1cccc(Cl)c1` (stereo not shown) [Example 826]: under 0.5 µM; for `O=S(=O)(c1ccc2oc3c(c2c1)CCNC3)c1cccnc1OCC(F)(F)F` [Example 448]: under 0.5 µM. To `Cc1nc(S(=O)(=O)Oc2ccc3c(c2)OC2CNCCC32)cn1C` (stereo not shown) [Example 645] belongs over 1 µM; to `COCCOc1cccc(S(=O)(=O)c2ccc3c(c2)OC2CNCCC32)c1` (stereo not shown) [Example 558], 0.5 to 1 µM; to `O=C(COc1cccc(S(=O)(=O)c2ccc3c(c2)OC2CNCCC32)c1)N1CCCC1` (stereo not shown) [Example 564], over 1 µM. Take `CC(=O)N(C)CCC1NCCc2c1oc1cc(S(=O)(=O)c3cccc(F)c3)ccc21` (racemic) [Example 538, N-(2-{7-[(3-fluorophenyl)sulfonyl]-1,2,3,4-tetrahydro[1]benzofuro[2,3-c]pyridin-1-yl}ethyl)-N-methylacetamide]: the Ki is under 0.5 µM. The same measure for `CC12CCNCC1Oc1cc(S(=O)(=O)c3cncc(F)c3)ccc12` (stereo not shown) [Example 429]: over 1 µM; for `NC(=O)COc1cccc(S(=O)(=O)c2ccc3c(c2)OC2CNCCC32)c1` (stereo not shown) [Example 563]: over 1 µM.

For the compound `CC(C)Oc1cccc(S(=O)(=O)c2ccc3c4c(oc3c2)C2(CCOC2)NCC4)c1` (single isomer, unassigned) [Example 32, 7-{[3-(propan-2-yloxy)phenyl]sulfonyl}-3,4,4′,5′-tetrahydro-2H-spiro[1-benzofuro[2,3-c]pyridine-1,3′-furan]], the Ki is under 0.5 µM.

On to `O=S(=O)(c1ccc(C(F)(F)F)cc1)c1ccc2oc3c(c2c1)CCNC3` [Example 278], for which the Ki is under 0.5 µM. The same measure for `CC(C)Oc1cccc(S(=O)(=O)c2ccc3c(c2)OC2C3CCNC23CCC3)c1` (stereo not shown) [Example 622, 7-{[3-(Propan-2-yloxy)phenyl]sulfonyl}-3,4,4a,9a-tetrahydro-2H-spiro[1-benzofuro[2,3-c]pyridine-1,1′-cyclobutane]hydrochloride]: under 0.5 µM; for `CN(c1ccc2c(c1)OC1CNCCC21)S(=O)(=O)c1c(Cl)nc2sccn12` (stereo not shown) [Example 835, 6-Chloro-N-[1,2,3,4,4a,9a-hexahydro[1]benzofuro[2,3-c]pyridin-7-yl]-N-methylimidazo[2,1-b][1,3]thiazole-5-sulfonamide]: under 0.5 µM. `COCC1(C)NCCc2c1oc1cc(S(=O)(=O)c3cccc(F)c3)ccc21` (stereo not shown) [Example 633]: the Ki is under 0.5 µM. Turning to `O=S(=O)(CCc1ccccc1)Oc1ccc2c(c1)C1CCNCC1O2` (stereo not shown) [Example 755], the Ki was over 1 µM. In the case of `O=S(=O)(c1ccc2c(c1)C1CCNCC1O2)c1cccc(Cl)c1Cl` (stereo not shown) [Example 176], the Ki was under 0.5 µM. On to `CC(C)c1ccc(S(=O)(=O)c2ccc3c4c(oc3c2)CNCC4)cc1` [Example 195], for which the Ki is under 0.5 µM. `CC12CCNCC1Oc1cc(S(=O)(=O)c3cccc(F)c3)ccc12` (racemic) [Example 11, 7-[(3-fluorophenyl)sulfonyl]-4a-methyl-1,2,3,4,4a,9a-hexahydro[1]benzofuro[2,3-c]pyridine]: the inhibition constant (Ki) is under 0.5 µM.

On to `O=S(=O)(c1ccccc1)c1ccc2c3c([nH]c2c1)C1(CCOC1)NCC3` (stereo not drawn) [Example 546, 7-(Phenylsulfonyl)-2,3,4,4′,5′,9-hexahydrospiro[beta-carboline-1,3′-furan]trifluoroacetate], for which the inhibition constant Ki was under 0.5 µM. On to `[O-][S+](c1ccc2c(c1)OC1CNCCC21)c1cccnc1Cl` (stereo not shown) [Example 389], for which the Ki was over 1 µM. The same measure for `O=S(=O)(c1ccc2c(c1)C1CCNCC1O2)N1CCN(c2ccccc2)CC1` (stereo not shown) [Example 845]: over 1 µM. The same measure for `O=S(=O)(c1cccc(F)c1)c1ccc2oc3c(c2c1)CCN1CCC31` (stereo not shown) [Example 619]: under 0.5 µM; for `O=S(=O)(c1cncc(Cl)c1)c1ccc2c3c(oc2c1)CNCC3` [Example 437]: under 0.5 µM; for `COc1cccc(S(=O)(=O)c2ccc3oc4c(c3c2)CCNC4)c1` [Example 246]: under 0.5 µM.

As for `CC(C)Oc1cccc(S(=O)(=O)c2ccc3c4c(oc3c2)C(C)(C)NCC4)c1` [Example 15, 1,1-dimethyl-7-{[3-(propan-2-yloxy)phenyl]sulfonyl}-1,2,3,4-tetrahydro[1]benzofuro[2,3-c]pyridine], the Ki was under 0.5 µM. The same measure for `CC12CCNCC1Oc1cc(S(=O)(=O)c3ncccn3)ccc12` (racemic) [Example 9, 4a-methyl-7-(pyrimidin-2-ylsulfonyl)-1,2,3,4,4a,9a-hexahydro[1]benzofuro[2,3-c]pyridine]: over 1 µM; for `CC1(C)CNCc2oc3cc(S(=O)(=O)c4cncc(Cl)c4)ccc3c21` [Example 452]: under 0.5 µM. The same measure for `O=S(=O)(c1ccc2c3c(oc2c1)CNCC3)c1cc(F)ccc1F` [Example 223]: under 0.5 µM; for `CC(C)Oc1ccccc1S(=O)(=O)c1ccc2c(c1)OC1CNCCC21` (stereo not shown) [Example 406]: under 0.5 µM; for `O=S(=O)(c1cccc(C(F)(F)F)c1)c1ccc2oc3c(c2c1)CCNC3` [Example 239]: under 0.5 µM. The same measure for `O=S(=O)(c1ccncc1)c1ccc2c3c(oc2c1)CNCC3` [Example 344]: 0.5 to 1 µM; for `[O-][S+](c1ccc(OC(F)(F)F)cc1)c1ccc2c3c(oc2c1)CNCC3` (stereo not shown) [Example 226, 7-{[4-(trifluoromethoxy)phenyl]sulfi-nyl}-1,2,3,4-tetrahydro[1]benzofuro[2,3-c]pyridine]: over 1 µM. For the compound `COc1ccc(S(=O)(=O)Nc2ccc3c(c2)C2CCNCC2O3)cc1` (stereo not shown) [Example 821], the Ki was over 1 µM. The same measure for `CC12CCNCC1Oc1ccc(OS(=O)(=O)c3cc4ccccc4s3)cc12` (stereo not shown) [Example 773]: under 0.5 µM. The same measure for `Cn1cnc(S(=O)(=O)Oc2ccc3c(c2)OC2CNCCC32)c1` (stereo not shown) [Example 639]: over 1 µM.
